Test results as given in ChEMBL document CHEMBL1158359, “A novel and efficient one step synthesis of 2-amino-5-cyano-6-hydroxy-4-aryl pyrimidines and their anti-bacterial activity” (2009).

What was measured:
Assay type in all cases: functional
Conditions in all cases: read-out: IZ
Staphylococcus aureus [1] = assay: Antibacterial activity against Staphylococcus aureus at 750 ppm after 1 hr by agar well diffusion method
Escherichia coli [2] = assay: Antibacterial activity against Escherichia coli at 500 ppm after 1 hr by agar well diffusion method
Escherichia coli [3] = assay: Antibacterial activity against Escherichia coli at 250 ppm after 1 hr by agar well diffusion method
Escherichia coli [4] = assay: Antibacterial activity against Escherichia coli at 750 ppm after 1 hr by agar well diffusion method
Staphylococcus aureus [5] = assay: Antibacterial activity against Staphylococcus aureus at 500 ppm after 1 hr by agar well diffusion method
Staphylococcus aureus [6] = assay: Antibacterial activity against Staphylococcus aureus at 250 ppm after 1 hr by agar well diffusion method
Staphylococcus aureus [7] = assay: Antibacterial activity against Staphylococcus aureus at 100 ppm after 1 hr by agar well diffusion method
Staphylococcus aureus [8] = assay: Antibacterial activity against Staphylococcus aureus at 50 ppm after 1 hr by agar well diffusion method

With N#Cc1c(O)nc(N)nc1-c1cccc(Cl)c1 the zone of inhibition at 750 ppm (Staphylococcus aureus [1]) was 5 mm, the zone of inhibition at 500 ppm (Escherichia coli [2]) was 7 mm and the zone of inhibition at 250 ppm (Escherichia coli [3]) was 4 mm. It also gave a zone of inhibition at 750 ppm (Escherichia coli [4]) of 11 mm.
In the case of COc1cc(-c2nc(N)nc(O)c2C#N)cc(OC)c1OC, the zone of inhibition at 750 ppm (Staphylococcus aureus [1]) is reported as 13 mm and the zone of inhibition at 500 ppm (Staphylococcus aureus [5]) is reported as 10 mm.
N#Cc1c(O)nc(N)nc1-c1ccccc1[N+](=O)[O-] gave a zone of inhibition at 750 ppm (Staphylococcus aureus [1]) of 15 mm, a zone of inhibition at 500 ppm (Escherichia coli [2]) of 5 mm and a zone of inhibition at 500 ppm (Staphylococcus aureus [5]) of 12 mm. For the same molecule, the zone of inhibition at 250 ppm (Escherichia coli [3]) was 3 mm and the zone of inhibition at 750 ppm (Escherichia coli [4]) was 9 mm.
For N#Cc1c(O)nc(N)nc1-c1cccc([N+](=O)[O-])c1, the zone of inhibition at 750 ppm (Staphylococcus aureus [1]) was 14 mm, the zone of inhibition at 250 ppm (Staphylococcus aureus [6]) was 4 mm and the zone of inhibition at 500 ppm (Staphylococcus aureus [5]) was 8 mm.
With N#Cc1c(O)nc(N)nc1-c1ccccc1Cl the zone of inhibition at 750 ppm (Staphylococcus aureus [1]) was 14 mm, the zone of inhibition at 250 ppm (Staphylococcus aureus [6]) was 5 mm and the zone of inhibition at 500 ppm (Escherichia coli [2]) was 8 mm. It also gave a zone of inhibition at 500 ppm (Staphylococcus aureus [5]) of 9 mm and a zone of inhibition at 750 ppm (Escherichia coli [4]) of 10 mm.
With N#Cc1c(O)nc(N)nc1-c1ccc(O)cc1 the zone of inhibition at 750 ppm (Staphylococcus aureus [1]) was 11 mm, the zone of inhibition at 250 ppm (Staphylococcus aureus [6]) was 5 mm and the zone of inhibition at 500 ppm (Escherichia coli [2]) was 6 mm. For the same molecule, the zone of inhibition at 500 ppm (Staphylococcus aureus [5]) was 8 mm and the zone of inhibition at 750 ppm (Escherichia coli [4]) was 10 mm.
CN(C)c1ccc(-c2nc(N)nc(O)c2C#N)cc1 was tested, and the zone of inhibition at 750 ppm (Staphylococcus aureus [1]) was 11 mm, the zone of inhibition at 250 ppm (Staphylococcus aureus [6]) was 7 mm and the zone of inhibition at 500 ppm (Escherichia coli [2]) was 7 mm. It also gave a zone of inhibition at 500 ppm (Staphylococcus aureus [5]) of 9 mm, a zone of inhibition at 250 ppm (Escherichia coli [3]) of 4 mm and a zone of inhibition at 750 ppm (Escherichia coli [4]) of 11 mm.
Molecule N#Cc1c(O)nc(N)nc1C/C=C/c1ccccc1 has a zone of inhibition at 750 ppm (Staphylococcus aureus [1]) of 9 mm, a zone of inhibition at 500 ppm (Escherichia coli [2]) of 9 mm and a zone of inhibition at 500 ppm (Staphylococcus aureus [5]) of 5 mm. It also gave a zone of inhibition at 250 ppm (Escherichia coli [3]) of 7 mm and a zone of inhibition at 750 ppm (Escherichia coli [4]) of 12 mm.
For COc1ccc(C2NC(=N)NC(=O)C2C#N)cc1 (stereo unspecified), the zone of inhibition at 750 ppm (Staphylococcus aureus [1]) was 5 mm.
Molecule N#Cc1c(O)nc(N)nc1-c1ccccc1 has a zone of inhibition at 750 ppm (Staphylococcus aureus [1]) of 18 mm, a zone of inhibition at 250 ppm (Staphylococcus aureus [6]) of 15 mm and a zone of inhibition at 100 ppm (Staphylococcus aureus [7]) of 12 mm. The zone of inhibition at 500 ppm (Staphylococcus aureus [5]) was 15 mm and the zone of inhibition at 50 ppm (Staphylococcus aureus [8]) was 10 mm.
